# ChEMBL document CHEMBL1155131, “Discovery of conformationally rigid 3-azabicyclo[3.1.0]hexane-derived dipeptidyl peptidase-IV inhibitors” (Bioorg Med Chem Lett, 2008)
# Key:
# Dipeptidyl peptidase 2 = Dipeptidyl peptidase 2 (Homo sapiens, UniProt Q9UHL4); assay: Inhibition of DPP2
# [1] = Antiproliferative activity against T cells; details: T-cell
# Prolyl endopeptidase = target: T1, Prolyl endopeptidase (Homo sapiens, UniProt P48147); assay: Inhibition of PPCE
# T1 sequence (P48147 whole entry): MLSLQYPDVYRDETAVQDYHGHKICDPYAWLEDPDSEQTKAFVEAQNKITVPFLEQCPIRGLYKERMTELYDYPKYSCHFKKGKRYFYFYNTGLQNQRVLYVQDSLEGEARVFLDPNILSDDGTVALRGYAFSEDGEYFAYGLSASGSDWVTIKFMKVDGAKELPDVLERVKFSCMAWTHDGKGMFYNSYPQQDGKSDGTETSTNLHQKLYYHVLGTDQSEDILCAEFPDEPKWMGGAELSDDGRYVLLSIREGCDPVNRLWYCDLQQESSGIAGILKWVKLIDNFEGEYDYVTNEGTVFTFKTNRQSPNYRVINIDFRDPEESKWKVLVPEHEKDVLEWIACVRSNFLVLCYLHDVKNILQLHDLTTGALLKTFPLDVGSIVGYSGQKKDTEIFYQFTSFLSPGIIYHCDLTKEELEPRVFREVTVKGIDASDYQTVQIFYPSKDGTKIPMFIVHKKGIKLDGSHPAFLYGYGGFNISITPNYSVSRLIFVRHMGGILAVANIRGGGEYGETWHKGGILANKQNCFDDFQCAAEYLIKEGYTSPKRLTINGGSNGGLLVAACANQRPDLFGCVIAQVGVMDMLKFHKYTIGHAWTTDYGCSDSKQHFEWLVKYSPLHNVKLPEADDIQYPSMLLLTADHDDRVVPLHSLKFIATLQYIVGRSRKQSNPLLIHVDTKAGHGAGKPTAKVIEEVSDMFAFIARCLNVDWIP
# Dipeptidyl peptidase 8 = Dipeptidyl peptidase 8 (Homo sapiens, UniProt Q6V1X1); assay: Inhibition of DPP8
# Sequence of Dipeptidyl peptidase 8 (Q6V1X1 whole entry): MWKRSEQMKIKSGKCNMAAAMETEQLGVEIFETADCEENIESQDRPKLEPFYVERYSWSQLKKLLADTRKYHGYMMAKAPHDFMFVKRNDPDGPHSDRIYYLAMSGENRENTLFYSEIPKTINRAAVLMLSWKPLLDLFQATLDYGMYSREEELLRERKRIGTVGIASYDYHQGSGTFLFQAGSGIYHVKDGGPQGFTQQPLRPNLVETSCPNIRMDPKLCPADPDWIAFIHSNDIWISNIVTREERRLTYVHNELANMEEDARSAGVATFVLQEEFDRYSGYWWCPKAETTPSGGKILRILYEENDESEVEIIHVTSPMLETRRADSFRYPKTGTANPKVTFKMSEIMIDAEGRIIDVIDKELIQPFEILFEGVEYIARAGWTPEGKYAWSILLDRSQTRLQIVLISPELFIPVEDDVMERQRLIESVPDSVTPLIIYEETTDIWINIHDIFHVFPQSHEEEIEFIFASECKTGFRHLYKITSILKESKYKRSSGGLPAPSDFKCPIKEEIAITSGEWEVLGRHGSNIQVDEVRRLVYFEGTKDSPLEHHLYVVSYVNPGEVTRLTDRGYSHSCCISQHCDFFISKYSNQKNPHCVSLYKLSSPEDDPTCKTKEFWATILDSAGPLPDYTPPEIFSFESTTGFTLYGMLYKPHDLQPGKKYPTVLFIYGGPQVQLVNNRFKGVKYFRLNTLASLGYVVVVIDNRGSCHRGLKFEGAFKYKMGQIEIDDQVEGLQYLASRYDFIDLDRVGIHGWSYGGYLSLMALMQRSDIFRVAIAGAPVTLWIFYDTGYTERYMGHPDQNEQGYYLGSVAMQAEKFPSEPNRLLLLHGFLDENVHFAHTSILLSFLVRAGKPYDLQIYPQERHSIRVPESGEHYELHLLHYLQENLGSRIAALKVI
# Dipeptidyl peptidase 4 = Dipeptidyl peptidase 4 (Homo sapiens, UniProt P27487); assay: Inhibition of human plasma DPP4; format: cell-free
# Sequence of Dipeptidyl peptidase 4 (P27487 whole entry): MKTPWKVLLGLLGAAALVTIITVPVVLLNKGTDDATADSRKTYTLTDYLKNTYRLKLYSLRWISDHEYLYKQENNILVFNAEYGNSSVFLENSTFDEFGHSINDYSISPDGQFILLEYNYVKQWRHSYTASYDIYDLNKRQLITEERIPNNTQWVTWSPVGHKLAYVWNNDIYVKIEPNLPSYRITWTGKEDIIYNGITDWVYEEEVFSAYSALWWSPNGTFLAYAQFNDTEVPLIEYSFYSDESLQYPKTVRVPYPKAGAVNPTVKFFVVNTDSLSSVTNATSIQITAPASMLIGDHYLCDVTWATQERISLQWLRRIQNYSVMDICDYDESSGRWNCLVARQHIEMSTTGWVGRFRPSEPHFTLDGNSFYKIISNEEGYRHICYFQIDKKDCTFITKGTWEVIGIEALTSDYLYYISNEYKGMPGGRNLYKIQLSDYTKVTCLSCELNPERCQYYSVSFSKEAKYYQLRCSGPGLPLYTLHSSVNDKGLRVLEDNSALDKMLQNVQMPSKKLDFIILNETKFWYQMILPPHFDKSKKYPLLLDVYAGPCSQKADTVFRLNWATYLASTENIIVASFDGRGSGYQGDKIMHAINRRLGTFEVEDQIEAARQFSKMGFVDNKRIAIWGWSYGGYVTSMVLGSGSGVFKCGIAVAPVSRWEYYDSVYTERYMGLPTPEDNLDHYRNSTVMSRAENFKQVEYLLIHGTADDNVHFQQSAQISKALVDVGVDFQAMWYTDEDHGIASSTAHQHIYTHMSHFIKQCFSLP
# Dipeptidyl peptidase 9 = Dipeptidyl peptidase 9 (Homo sapiens, UniProt Q86TI2); assay: Inhibition of DPP9
# Sequence of Dipeptidyl peptidase 9 (Q86TI2 whole entry): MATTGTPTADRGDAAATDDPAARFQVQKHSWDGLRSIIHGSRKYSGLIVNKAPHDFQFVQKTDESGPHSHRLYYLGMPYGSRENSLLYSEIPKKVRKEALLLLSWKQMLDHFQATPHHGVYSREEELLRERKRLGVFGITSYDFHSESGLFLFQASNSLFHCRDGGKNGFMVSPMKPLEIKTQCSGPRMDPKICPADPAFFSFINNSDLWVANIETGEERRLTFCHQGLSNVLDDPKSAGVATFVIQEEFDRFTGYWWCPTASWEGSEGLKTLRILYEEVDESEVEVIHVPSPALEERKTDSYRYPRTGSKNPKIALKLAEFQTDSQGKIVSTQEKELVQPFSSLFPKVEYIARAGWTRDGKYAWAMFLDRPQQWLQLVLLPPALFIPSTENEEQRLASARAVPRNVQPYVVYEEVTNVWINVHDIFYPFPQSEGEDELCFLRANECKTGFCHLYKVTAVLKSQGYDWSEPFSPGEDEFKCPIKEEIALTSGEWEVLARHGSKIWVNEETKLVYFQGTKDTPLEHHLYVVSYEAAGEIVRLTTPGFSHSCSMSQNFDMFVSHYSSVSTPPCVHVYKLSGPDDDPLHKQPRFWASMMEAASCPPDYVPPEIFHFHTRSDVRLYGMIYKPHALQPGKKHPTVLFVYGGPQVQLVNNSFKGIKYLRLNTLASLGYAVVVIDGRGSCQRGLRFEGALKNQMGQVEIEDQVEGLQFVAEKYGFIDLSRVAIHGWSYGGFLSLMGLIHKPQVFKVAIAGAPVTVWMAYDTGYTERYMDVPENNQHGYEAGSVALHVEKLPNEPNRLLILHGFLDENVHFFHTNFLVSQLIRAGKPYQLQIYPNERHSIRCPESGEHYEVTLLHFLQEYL
compound,measurement,setting,value
N#Cc1cccnc1N1C[C@@H]2[C@H](C1)[C@H]2NCC(=O)N1C[C@@H](F)C[C@H]1C#N,IC50,Dipeptidyl peptidase 2,1.34 µM
same,IC50,[1],> 10 µM
CNC(=O)c1ccc(N2C[C@@H]3[C@H](C2)[C@H]3NCC(=O)N2C[C@@H](F)C[C@H]2C#N)cc1,IC50,[1],> 10 µM
N#C[C@@H]1C[C@H](F)CN1C(=O)CN[C@H]1[C@@H]2CN(c3ccc(C(=O)NC4CC4)cc3)C[C@@H]21,IC50,[1],> 10 µM
N#C[C@@H]1C[C@H](F)CN1C(=O)CN[C@H]1[C@@H]2CN(c3ccc(Cl)cn3)C[C@@H]21,IC50,Dipeptidyl peptidase 2,8.75 µM
same,IC50,[1],> 10 µM
same,IC50,Prolyl endopeptidase,9.04 µM
N#Cc1ccccc1N1C[C@@H]2[C@H](C1)[C@H]2NCC(=O)N1C[C@@H](F)C[C@H]1C#N,IC50,Dipeptidyl peptidase 2,0.406 µM
same,IC50,Prolyl endopeptidase,> 10 µM
N#Cc1ccc(N2C[C@@H]3[C@H](C2)[C@H]3NCC(=O)N2C[C@@H](F)C[C@H]2C#N)cc1,IC50,Dipeptidyl peptidase 2,18.1 µM
N#Cc1ccc(N2C[C@@H]3[C@H](C2)[C@H]3NCC(=O)N2C[C@@H](F)C[C@H]2C#N)c(F)c1,IC50,Dipeptidyl peptidase 2,2.76 µM
same,IC50,Prolyl endopeptidase,> 10 µM
N#Cc1c(Cl)cccc1N1C[C@@H]2[C@H](C1)[C@H]2NCC(=O)N1C[C@@H](F)C[C@H]1C#N,IC50,Dipeptidyl peptidase 8,> 10 µM
same,IC50,Dipeptidyl peptidase 2,0.096 µM
same,IC50,[1],> 10 µM
N#Cc1ccc(N2C[C@@H]3[C@H](C2)[C@H]3NCC(=O)N2C[C@@H](F)C[C@H]2C#N)cc1F,IC50,Dipeptidyl peptidase 2,1.2 µM
same,IC50,[1],> 10 µM
same,IC50,Prolyl endopeptidase,9.94 µM
N#C[C@@H]1C[C@H](F)CN1C(=O)CN[C@H]1[C@@H]2CN(c3ccc([N+](=O)[O-])cn3)C[C@@H]21,IC50,Dipeptidyl peptidase 2,13 µM
same,IC50,Prolyl endopeptidase,8.5 µM
N#Cc1c(F)cccc1N1C[C@@H]2[C@H](C1)[C@H]2NCC(=O)N1C[C@@H](F)C[C@H]1C#N,IC50,Dipeptidyl peptidase 8,> 10 µM
same,IC50,Dipeptidyl peptidase 2,> 10 µM
same,IC50,Prolyl endopeptidase,> 10 µM
N#Cc1cc(F)ccc1N1C[C@@H]2[C@H](C1)[C@H]2NCC(=O)N1C[C@@H](F)C[C@H]1C#N,IC50,Dipeptidyl peptidase 2,> 10 µM
same,IC50,Prolyl endopeptidase,> 10 µM
N#C[C@@H]1C[C@H](F)CN1C(=O)CN[C@H]1[C@@H]2CN(c3nccs3)C[C@@H]21,IC50,Dipeptidyl peptidase 2,11 µM
same,IC50,Prolyl endopeptidase,> 100 µM
CCOC(=O)c1ccc(N2C[C@@H]3[C@H](C2)[C@H]3NCC(=O)N2C[C@@H](F)C[C@H]2C#N)cc1,IC50,Dipeptidyl peptidase 2,9.88 µM
N#C[C@@H]1C[C@H](F)CN1C(=O)CN[C@H]1[C@@H]2CN(c3ccc(C(N)=O)cc3)C[C@@H]21,IC50,Dipeptidyl peptidase 2,21.8 µM
same,IC50,[1],> 10 µM
N#C[C@@H]1C[C@H](F)CN1C(=O)CN[C@H]1[C@@H]2CN(c3ccc(C(F)(F)F)cn3)C[C@@H]21,IC50,Dipeptidyl peptidase 2,4 µM
same,IC50,Prolyl endopeptidase,> 100 µM
N#C[C@@H]1C[C@H](F)CN1C(=O)CN[C@H]1[C@@H]2CN(c3nc4ccccc4s3)C[C@@H]21,IC50,Dipeptidyl peptidase 2,5.1 µM
same,IC50,Prolyl endopeptidase,> 10 µM
N#C[C@@H]1C[C@H](F)CN1C(=O)CN[C@H]1[C@@H]2CN(c3nc4ccccc4o3)C[C@@H]21,IC50,Dipeptidyl peptidase 2,5.1 µM
same,IC50,Prolyl endopeptidase,> 100 µM
N#C[C@@H]1C[C@H](F)CN1C(=O)CN[C@H]1[C@@H]2CN(c3ncccc3[N+](=O)[O-])C[C@@H]21,IC50,Dipeptidyl peptidase 2,6.42 µM
same,IC50,Prolyl endopeptidase,> 10 µM
N#Cc1ccc(N2C[C@@H]3[C@H](C2)[C@H]3NCC(=O)N2CC(F)(F)C[C@H]2C#N)nc1,IC50,Dipeptidyl peptidase 2,2.8 µM
N#Cc1ccc(N2C[C@@H]3[C@H](C2)[C@H]3NCC(=O)N2CCSC2)nc1,IC50,Dipeptidyl peptidase 4,> 10 µM
N#Cc1cc(C(F)(F)F)ccc1N1C[C@@H]2[C@H](C1)[C@H]2NCC(=O)N1C[C@@H](F)C[C@H]1C#N,IC50,Dipeptidyl peptidase 2,4.33 µM
same,IC50,Prolyl endopeptidase,> 100 µM
CC(=O)c1ccc(N2C[C@@H]3[C@H](C2)[C@H]3NCC(=O)N2C[C@@H](F)C[C@H]2C#N)cc1,IC50,Dipeptidyl peptidase 2,9 µM
same,IC50,[1],> 10 µM
N#Cc1cc(F)cc(N2C[C@@H]3[C@H](C2)[C@H]3NCC(=O)N2C[C@@H](F)C[C@H]2C#N)c1,IC50,Dipeptidyl peptidase 2,1.8 µM
same,IC50,Prolyl endopeptidase,9.15 µM
N#Cc1cccc(F)c1N1C[C@@H]2[C@H](C1)[C@H]2NCC(=O)N1C[C@@H](F)C[C@H]1C#N,IC50,Dipeptidyl peptidase 2,1.3 µM
same,IC50,Prolyl endopeptidase,> 10 µM
N#Cc1ccc(N2C[C@@H]3[C@H](C2)[C@H]3NCC(=O)N2C[C@@H](F)C[C@H]2C#N)c(C(F)(F)F)c1,IC50,Dipeptidyl peptidase 2,1 µM
same,IC50,Prolyl endopeptidase,2.1 µM
N#Cc1ccc(N2C[C@@H]3[C@H](C2)[C@H]3NCC(=O)N2C[C@@H](F)C[C@H]2C#N)cc1Cl,IC50,Dipeptidyl peptidase 2,0.907 µM
N#Cc1ccc(N2C[C@@H]3[C@H](C2)[C@H]3NCC(=O)N2C[C@@H](F)C[C@H]2C#N)c(Cl)c1,IC50,Dipeptidyl peptidase 2,1 µM
N#C[C@@H]1C[C@H](F)CN1C(=O)CN[C@H]1[C@@H]2CN(c3cnc4ccccc4n3)C[C@@H]21,IC50,Dipeptidyl peptidase 2,0.226 µM
same,IC50,Prolyl endopeptidase,> 10 µM
N#C[C@@H]1C[C@H](F)CN1C(=O)CN[C@H]1[C@@H]2CN(c3ncccn3)C[C@@H]21,IC50,Dipeptidyl peptidase 9,> 100 µM
same,IC50,Dipeptidyl peptidase 2,16.5 µM
N#C[C@@H]1C[C@H](F)CN1C(=O)CN[C@H]1[C@@H]2CN(c3nccc(C(F)(F)F)n3)C[C@@H]21,IC50,Dipeptidyl peptidase 2,2.2 µM
same,IC50,Prolyl endopeptidase,> 100 µM
N[C@@H](CCCCNC(=O)OCc1ccc([N+](=O)[O-])cc1)C(=O)N1CCCC1,IC50,[1],0.839 µM
N#C[C@@H]1C[C@H](F)CN1C(=O)CN[C@H]1[C@@H]2CN(c3ccccn3)C[C@@H]21,IC50,Dipeptidyl peptidase 2,10.8 µM
same,IC50,[1],> 10 µM
same,IC50,Prolyl endopeptidase,1.42 µM
N#Cc1ccc(N2C[C@@H]3[C@H](C2)[C@H]3NCC(=O)N2C[C@@H](F)C[C@H]2C#N)nc1,IC50,Dipeptidyl peptidase 2,11 µM
same,IC50,Prolyl endopeptidase,> 100 µM
N#Cc1c(N2C[C@@H]3[C@H](C2)[C@H]3NCC(=O)N2C[C@@H](F)C[C@H]2C#N)cccc1C(F)(F)F,IC50,Dipeptidyl peptidase 2,1.3 µM
same,IC50,Prolyl endopeptidase,> 10 µM
N#Cc1c(F)cc(N2C[C@@H]3[C@H](C2)[C@H]3NCC(=O)N2C[C@@H](F)C[C@H]2C#N)cc1F,IC50,Dipeptidyl peptidase 2,10.9 µM
same,IC50,Prolyl endopeptidase,9.7 µM
N#Cc1c(F)cc(F)cc1N1C[C@@H]2[C@H](C1)[C@H]2NCC(=O)N1C[C@@H](F)C[C@H]1C#N,IC50,Dipeptidyl peptidase 2,3.9 µM
same,IC50,Prolyl endopeptidase,8.7 µM
NCC[C@H](N)C(=O)N1CCCCC1,IC50,Dipeptidyl peptidase 2,0.163 µM
N#C[C@@H]1CCCN1C(=O)CNC12CC3CC(CC(O)(C3)C1)C2 [VILDAGLIPTIN],IC50,[1],> 10 µM
